Assay: Pharmacokinetic study in Sprague Dawley rats, single oral dose, plasma LC/MS/MS
Type: in vivo
Details: suspension in 0.5% methylcellulose in water
Description: Pharmacokinetic studies were carried out in Sprague Dawley rats. Exemplary compounds were administered orally by gavage to groups of three rats using a single oral dose of 5 mg/kg. Each oral dose was prepared as a suspension in 0.5% methylcellulose in water. Blood samples were obtained serially from each rat at 0, 15, 30 min, and then 1, 2, 4, 8, and 24 hrs post dose.
Concentrations of an administered compound and the corresponding metabolite (Compound 1) in rat plasma were determined by a HPLC tandem mass spectrometric (LC/MS/MS) method. 50 μL Plasma PPT by ISTD in MeOH/Acetonitrile (1:1, v/v). 200 μL of 5 ng/mL Terfenadine and Buspirone was added to in MeOH/Acetonitrile (1:1, v/v) and mixed well. […]
Quantification of compounds were achieved by mass spectrometry using Multiple Reaction Monitoring (MRM) mode, monitoring the transitions specific to each exemplary compound and 447.34>405.20 for Compound 1. The quantification limit of the assay was 10 ng/mL for Compound 1.
Non-compartmental pharmacokinetic parameters were determined using a commercial program WinNonLin Professional, Version 8.0 (Pharsight, Mountain View, Calif.). […]
For oral administration, t½ (hr), tmax (hr), Cmax (ng/mL), AUClast (hr*ng/mL), AUCInf (hr*ng/mL), AUC Extr (%), MRTInf (hr), Cmax Ratio (Parent/Pro), AUClast Ratio (Parent/Pro) were determined.

Row | AUC (AUClast) (compounds of Formula (B), single oral dose of 5 mg/kg) | AUC(0-t) (rat, Compound 1, single oral dose of 5 mg/kg, read-out: AUC (AUClast)) | SMILES
1 | α or β |  | CCCC(=O)OCn1c(-c2cnn(Cc3cccc(C(F)(F)F)c3)c2)nc2c1c(=O)n(CCC)c(=O)n2CC [Compound E, (3-ethyl-2,6-dioxo-1-propyl-8-(1-(3-(trifluoromethyl)benzyl)-1H-pyrazol-4-yl)-1,2,3,6-tetrahydro-7H-purin-7-yl)methyl butyrate]
2 |  | < 30000 ng·h/mL | CCCn1c(=O)c2[nH]c(-c3cnn(Cc4cccc(C(F)(F)F)c4)c3)nc2n(CC)c1=O [Compound 1, 8-(1-(3-(Trifluoromethyl)benzyl)-1H-pyrazol-4-yl)-3-ethyl-1-propyl-1H-purine-2,6(3H,7H)-dione]

Source: US11124515B2, “Adenosine receptor antagonists and uses thereof” (Teon Therapeutics, Inc., priority 2018, dated 2021)
